Data reported in patent US6699833B1, “Pharmaceutical formulations for sustained drug delivery” (Praecis Pharmaceuticals, Inc., priority 1996, dated 2004).
Where a SMILES comes first, the peptide text is derived from it. [ ]: non-standard residue; d: D form. dPhe(4-Cl) = N[C@H](Cc1ccc(Cl)cc1)C(=O)O; d2Nal = N[C@H](Cc1ccc2ccccc2c1)C(=O)O; Lys(iPr) = CC(C)NCCCC[C@H](N)C(=O)O; NMeY = CN[C@@H](Cc1ccc(O)cc1)C(=O)O; d3Pal = N[C@H](Cc1cccnc1)C(=O)O

Conditions: rat, in vivo
Experimental: On day 30, the LHRH agonist Lupron™ (leuprolide) was injected into the rats. Plasma testosterone levels (in ng/ml; indicated by the open boxes in FIG. 2) were determined at various time points as a measure of the activity of the LHRH antagonist in the animal. Plasma levels of PPI-149 (in ng/ml) were also monitored in the animals (indicated by the closed boxes in FIG. 2).

Question: For CC(=O)N[C@H](Cc1ccc2ccccc2c1)C(=O)N[C@H](Cc1ccc(Cl)cc1)C(=O)N[C@H](Cc1cccnc1)C(=O)N[C@@H](CO)C(=O)N(C)[C@@H](Cc1ccc(O)cc1)C(=O)N[C@H](CC(N)=O)C(=O)N[C@@H](CC(C)C)C(=O)N[C@@H](CCCCNC(C)C)C(=O)N1CCC[C@H]1C(=O)N[C@H](C)C(N)=O [PPI-149, Ac-D-Nal^1,4-Cl-D-Phe^2, D-Pal^3, N-Me-Tyr^5, D-Asn^6, Lys(iPr)^8, D-Ala^10-LHRH] (Ac-[d2Nal][dPhe(4-Cl)][d3Pal]S[NMeY][dN]L[Lys(iPr)]P[dA]-NH2), which “day beyond which PPI-149 could not be detected in plasma” value is on record?
Answer: ~8 days
